The assay concerns the target T1, androgen receptor (AR) (Rattus norvegicus, UniProt P15207).
T1 construct: Ventral prostates were obtained form rats castrated 24 h prior to sacrifice; from tissue; host or cells: rat ventral prostate cytosol (castrated rats, charcoal-treated)
T1 sequence (P15207 1-902): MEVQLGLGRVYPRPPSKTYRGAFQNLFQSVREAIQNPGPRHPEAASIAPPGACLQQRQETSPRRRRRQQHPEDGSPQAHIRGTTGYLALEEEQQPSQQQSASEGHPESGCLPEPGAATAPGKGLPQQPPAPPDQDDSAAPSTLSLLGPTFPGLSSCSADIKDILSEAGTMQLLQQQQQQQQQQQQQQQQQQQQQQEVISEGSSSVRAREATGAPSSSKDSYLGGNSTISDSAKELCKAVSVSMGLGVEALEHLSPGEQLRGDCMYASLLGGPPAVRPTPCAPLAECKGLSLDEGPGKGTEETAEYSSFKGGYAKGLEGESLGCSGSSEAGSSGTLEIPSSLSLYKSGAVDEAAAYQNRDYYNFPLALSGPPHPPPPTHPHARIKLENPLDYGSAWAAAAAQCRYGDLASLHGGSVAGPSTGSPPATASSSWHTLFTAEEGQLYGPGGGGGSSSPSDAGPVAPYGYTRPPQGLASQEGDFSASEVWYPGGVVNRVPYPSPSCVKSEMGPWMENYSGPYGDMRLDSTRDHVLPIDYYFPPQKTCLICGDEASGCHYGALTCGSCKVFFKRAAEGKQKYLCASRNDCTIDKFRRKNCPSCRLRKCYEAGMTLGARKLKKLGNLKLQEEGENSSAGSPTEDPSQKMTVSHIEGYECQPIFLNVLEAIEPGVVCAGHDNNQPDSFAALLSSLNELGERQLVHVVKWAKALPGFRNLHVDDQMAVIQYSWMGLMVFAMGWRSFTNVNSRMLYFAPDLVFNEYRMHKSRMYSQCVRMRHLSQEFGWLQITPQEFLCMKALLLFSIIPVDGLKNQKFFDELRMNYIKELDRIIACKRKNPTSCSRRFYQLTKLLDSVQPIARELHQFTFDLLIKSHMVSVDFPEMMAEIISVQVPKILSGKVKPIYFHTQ
As to the kind of experiment: AR binding assay, competition with [3H]-mibolerone binding in rat ventral prostate cytosol. The conditions noted are these: 1 nM [3H]-mibolerone, overnight at 0° C. Here is the method: Ventral prostates were obtained form rats castrated 24 h prior to sacrifice. Fresh prostate was minced and washed with Buffer A (Schilling and Liao, Prostate, 5:581-588, 1984). The minces were then homogenized in 3× volume of Buffer A containing protease inhibitors (Complete, Mini, EDTA-free Roche). The homogenate was centrifuged at 30000 g for 30 min. The resultant supernatants were treated with 1×volume of dextran-coated charcoal solution (12.5 g activated charcoal, 12.5 g dextran per liter of buffer A) to remove endogenous steroids. The samples were incubated for 5 min and centrifuged at 16000 g for 10 min. Aliquots of the charcoal-treated cytosol were taken for androgen receptor assays. All procedures were carried out at 0-4° C.
Cytosol androgen receptor concentration was determined as described (Isomaa et al., Endocrinology, 111: 833-843, 1982) with minor modifications. Cytosol preparations were prepared as described above, and bound and free steroids were separated by treatment with an equal volume of dextran-charcoal suspension for 5 min at 4° C. followed by centrifugation at 16000 g for 10 min. Bound radioactivity was determined by counting supernatant fractions in 1 ml of OptiPhase HiSafe3 or OptiPhase Supermix (PerkinElmer).
Cytosol preparations were labelled with 1 nM [^3H]-mibolerone overnight at 0° C. (total). To determine AR binding activity of the compounds of the present invention (test compounds), the ability of test compounds to compete with [^3H]7α,17α-dimethyl-17β-hydroxy-4-estren-3-one ([^3H]-mibolerone) binding was studied. 1 nM [^3H]-mibolerone and test compounds in two concentrations (0.2 and 2 uM) were incubated overnight at 0° C. To determine non-specific binding, parallel incubations were carried out using 1 nM concentration [^3H]-mibolerone with 500-fold molar excess of unlabelled testosterone. Two to four replicates were used for each sample. After incubation, bound and free steroids were separated as described above and bound radioactivity was determined. The ability of the test compounds to bind AR is reported as reduction in bound radioactivity obtained with 1 nM [^3H]-mibolerone. The results (% inhibition) were calculated as: % inhibition=100−(100×(averagetest compound/averagetotal)).

The structures appear in SMILES notation.

For orientation: inhibition means the drop in the measured response relative to a control, in per cent. Turning to `Cc1cc(NC(=O)C(C)(O)COc2ccccc2F)ccc1[N+](=O)[O-]` (stereo not shown) [Example 19, 3-(2-Fluorophenoxy)-2-hydroxy-2-methyl-N-(3-methyl-4-nitrophenyl)propionamide], where the note is “test compound 0.2 μM”, the inhibition at 0.2 µM was 83%. Further, the inhibition at 2 µM (test compound 2.0 μM) turned out to be 99%.
On the same counts, the results for `Cc1cc(NC(=O)C(C)(O)COc2cc(C)c(Cl)c(C)c2Cl)ccc1[N+](=O)[O-]` (stereo not shown) [Example 29, 3-(2,4-Dichloro-3,5-dimethylphenoxy)-2-hydroxy-2-methyl-N-(3-methyl-4-nitrophenyl)propionamide] are 92% and 90%.
Take `Cc1cc(NC(=O)C(C)(O)COc2ccc(C(N)=O)cc2)ccc1[N+](=O)[O-]` (stereo not shown) [Example 5, 4-[2-Hydroxy-2-(3-methyl-4-nitrophenylcarbamoyl)propoxy]benzamide]: the inhibition at 0.2 µM (test compound 0.2 μM) came out at 25%. Moreover, the inhibition at 2 µM (test compound 2.0 μM) turned out to be 74%.
For `Cc1cc(NC(=O)C(C)(O)COc2ccc(Br)cc2)ccc1[N+](=O)[O-]` (stereo not shown) [Example 24, 3-(4-Bromophenoxy)-2-hydroxy-2-methyl-N-(3-methyl-4-nitrophenyl)propionamide], the inhibition at 0.2 µM (test compound 0.2 μM) came to 75%. The inhibition at 2 µM (test compound 2.0 μM) is 93%.
For the molecule `CC(O)(COc1ccc(C#N)c(F)c1)C(=O)Nc1ccc([N+](=O)[O-])c(CO)c1` (stereo not shown) [Example 51, 3-(4-Cyano-3-fluorophenoxy)-2-hydroxy-N-(3-hydroxymethyl-4-nitrophenyl)-2-methylpropionamide], the inhibition at 0.2 µM (test compound 0.2 μM) is 73%. Moreover, the inhibition at 2 µM (test compound 2.0 μM) was found to be 92%.
In the same order, the values of `Cc1cc(NC(=O)C(C)(O)COc2c(Cl)cccc2Cl)ccc1[N+](=O)[O-]` (stereo not shown) [Example 21, 3-(2,6-Dichlorophenoxy)-2-hydroxy-2-methyl-N-(3-methyl-4-nitrophenyl)propionamide] are 26% and 91%.
On the same counts, the results for `Cc1cc(NC(=O)C(C)(O)COc2ccc3c(c2)OCO3)ccc1[N+](=O)[O-]` (stereo not shown) [Example 26, 3-(Benzo[1,3]dioxol-5-yloxy)-2-hydroxy-2-methyl-N-(3-methyl-4-nitrophenyl)propionamide] are 62% and 92%.
As to `Cc1cc([N+](=O)[O-])ccc1NC(=O)C(C)(O)COc1ccc(C#N)c(F)c1` (stereo not shown) [Example 64, 3-(4-Cyano-3-fluorophenoxy)-2-hydroxy-2-methyl-N-(2-methyl-4-nitrophenyl)propionamide], the inhibition at 0.2 µM (test compound 0.2 μM) is 79%. Moreover, the inhibition at 2 µM (test compound 2.0 μM) stood at 89%.
Consider `CC(=O)Nc1ccc(OC[C@](C)(O)C(=O)Nc2ccc([N+](=O)[O-])c(C)c2)cc1F` [Example 4, (2S)-3-(4-Acetylamino-3-fluorophenoxy)-2-hydroxy-2-methyl-N-(3-methyl-4-nitrophenyl)propionamide], for which the inhibition at 0.2 µM (test compound 0.2 μM) was 90%. Moreover, the inhibition at 2 µM (test compound 2.0 μM) is 88%.
For the molecule `Cc1cc(NC(=O)[C@@](C)(O)COc2ccc(C#N)c(F)c2)ccc1[N+](=O)[O-]` [Example 43, (2S)-3-(4-Cyano-3-fluorophenoxy)-2-hydroxy-2-methyl-N-(3-methyl-4-nitrophenyl)propionamide], the inhibition at 0.2 µM (test compound 0.2 μM) worked out at 95%. The inhibition at 2 µM (test compound 2.0 μM) amounted to 99%.
As for `Cc1cc(NC(=O)C(C)(O)COc2cccc(Cl)c2Cl)ccc1[N+](=O)[O-]` (stereo not shown) [Example 10, 3-(2,3-Dichlorophenoxy)-2-hydroxy-2-methyl-N-(3-methyl-4-nitrophenyl)propionamide], the inhibition at 0.2 µM (test compound 0.2 μM) was 5%. The inhibition at 2 µM (test compound 2.0 μM) was 83%.
For the molecule `Cc1cc(NC(=O)C(C)(O)COc2ccc(F)cc2)ccc1[N+](=O)[O-]` (stereo not shown) [Example 11, 3-(4-Fluorophenoxy)-2-hydroxy-2-methyl-N-(3-methyl-4-nitrophenyl)propionamide], where the note is “test compound 0.2 μM”, the inhibition at 0.2 µM was 98%. Where the note is “test compound 2.0 μM”, the inhibition at 2 µM is 105%.
On to `Cc1cc(NC(=O)C(C)(O)COc2ccc(C(=O)c3ccc(Cl)cc3)cc2)ccc1[N+](=O)[O-]` (stereo not shown) [Example 36, 3-[4-(4-Chlorobenzoyl)phenoxy]-2-hydroxy-2-methyl-N-(3-methyl-4-nitrophenyl)propionamide], for which the inhibition at 0.2 µM (test compound 0.2 μM) worked out at 3%. For the same molecule, the inhibition at 2 µM (test compound 2.0 μM) is 50%.
On the same counts, the results for `CCOC(=O)c1ccc(OCC(C)(O)C(=O)Nc2ccc([N+](=O)[O-])c(C)c2)cc1` (stereo not shown) [Example 7, 4-[2-Hydroxy-2-(3-methyl-4-nitrophenylcarbamoyl)propoxy]benzoic acid ethyl ester] are 74% and 98%.
On the same counts, the results for `CC(=O)Nc1ccc(OCC(C)(O)C(=O)Nc2ccc([N+](=O)[O-])c(C)c2)cc1F` (stereo not shown) [Example 2, 3-(4-Acetylamino-3-fluorophenoxy)-2-hydroxy-2-methyl-N-(3-methyl-4-nitrophenyl)propionamide] are 93% and 100%.
Regarding `Cc1cc(NC(=O)C(C)(O)COc2ccc(OCCCl)cc2)ccc1[N+](=O)[O-]` (stereo not shown) [Example 80, 3-[4-(2-Chloroethoxy)phenoxy]-2-hydroxy-2-methyl-N-(3-methyl-4-nitrophenyl)propionamide], where the note is “test compound 0.2 μM”, the inhibition at 0.2 µM was 87%. For the same molecule, the inhibition at 2 µM (test compound 2.0 μM) stood at 99%.
In the case of `Cc1cc(NC(=O)C(C)(O)COc2ccncc2)ccc1[N+](=O)[O-]` (stereo not shown) [Example 58, 2-Hydroxy-2-methyl-N-(3-methyl-4-nitrophenyl)-3-(pyridin-4-yloxo)propionamide], the “Inhibition (%) of [3H]-mibolerone binding at 0.2 μM” value (test compound 0.2 μM) stood at 84%. Besides, the “Inhibition (%) of [3H]-mibolerone binding at 2.0 μM” value (test compound 2.0 μM) was found to be 93%.
Consider `Cc1cc(NC(=O)C(C)(O)COc2ccc(F)c(F)c2)ccc1[N+](=O)[O-]` (stereo not shown) [Example 28, 3-(3,4-Difluorophenoxy)-2-hydroxy-2-methyl-N-(3-methyl-4-nitrophenyl)propionamide], for which, where the note is “test compound 0.2 μM”, the inhibition at 0.2 µM was 90%. For the same molecule, where the note is “test compound 2.0 μM”, the inhibition at 2 µM worked out at 88%.
With `Cc1cc(NC(=O)C(C)(O)COc2ccccc2)ccc1[N+](=O)[O-]` (stereo not shown) [Example 14, 2-Hydroxy-2-methyl-N-(3-methyl-4-nitrophenyl)-3-phenoxypropionamide], under “test compound 0.2 μM”, the inhibition at 0.2 µM was found to be 75%. In addition, the inhibition at 2 µM (test compound 2.0 μM) worked out at 95%.
In the same order, the values of `Cc1cc(NC(=O)C(C)(O)COc2ccc(C(F)(F)F)cc2)ccc1[N+](=O)[O-]` (stereo not shown) [Example 15, 2-Hydroxy-2-methyl-N-(3-methyl-4-nitrophenyl)-3-(4-trifluoromethylphenoxy)propionamide] are 46% and 77%.
In the same order, the values of `Cc1cc(NC(=O)C(C)(O)CNc2ccc(C#N)c(Cl)c2)ccc1[N+](=O)[O-]` (stereo not shown) [Example 56, 3-(3-Chloro-4-cyanophenylamino)-2-hydroxy-2-methyl-N-(3-methyl-4-nitrophenyl)propionamide] are 90% and 95%.
On the same counts, the results for `Cc1cc(NC(=O)C(C)(O)CNc2ccc(C#N)cc2)ccc1[N+](=O)[O-]` (stereo not shown) [Example 55, 3-(4-Cyanophenylamino)-2-hydroxy-2-methyl-N-(3-methyl-4-nitrophenyl)propionamide] are 87% and 99%.
In the case of `COc1ccc(OCC(C)(O)C(=O)Nc2ccc([N+](=O)[O-])c(C)c2)cc1OC` (stereo not shown) [Example 27, 3-(3,4-Dimethoxyphenoxy)-2-hydroxy-2-methyl-N-(3-methyl-4-nitrophenyl)propionamide], where the note is “test compound 0.2 μM”, the inhibition at 0.2 µM was 34%. Further, the inhibition at 2 µM (test compound 2.0 μM) stood at 89%.
